ChEMBL document CHEMBL1201862, “PubChem BioAssay data set” (2004)
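Cells were grown in 96-well plates and exposed to each compound for 48 hours at five concentrations; endpoints were interpolated linearly between bracketing concentrations, or set to the highest concentration if not reached. Abbreviation: GI50, concentration required for 50% inhibition of growth.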 The source made the active and inactive calls. Cut-off read from the data, not from the text of the source: active = GI50 up to about 1.1 µM and inactive = higher.

Tests used:
Assay in all cases: NCI-60 cell line screen, 48 h
OVCAR-8 = test system: OVCAR-8
SK-MEL-2 = test system: SK-MEL-2
HCT-116 = test system: HCT-116
SF-268 = test system: SF-268
NCI-H460 = test system: NCI-H460
UO-31 = test system: UO-31
OVCAR-4 = test system: OVCAR-4
HOP-92 = test system: HOP-92
KM12 = test system: KM12
M14 = test system: M14
SR = test system: SR
A549 = test system: A549
SNB-19 = test system: SNB-19
UACC-257 = test system: UACC-257
MOLT-4 = test system: MOLT-4
NCI-H522 = test system: NCI-H522
SF-539 = test system: SF-539
SK-MEL-28 = test system: SK-MEL-28
SW-620 = test system: SW-620
RXF 393 = test system: RXF 393

| SMILES | GI50 (OVCAR-8) | GI50 (SK-MEL-2) | GI50 (HCT-116) | GI50 (SF-268) | GI50 (NCI-H460) | GI50 (UO-31) | GI50 (OVCAR-4) | GI50 (HOP-92) | GI50 (KM12) | GI50 (M14) | GI50 (SR) | GI50 (A549) | GI50 (SNB-19) | GI50 (UACC-257) | GI50 (MOLT-4) | GI50 (NCI-H522) | GI50 (SF-539) | GI50 (SK-MEL-28) | GI50 (SW-620) | GI50 (RXF 393) |
| --- | --- | --- | --- | --- | --- | --- | --- | --- | --- | --- | --- | --- | --- | --- | --- | --- | --- | --- | --- | --- |
| CC1=NN(C(=O)c2ccccc2O)C(=O)/C1=C/c1ccc(O)cc1 | 0.358 µM (active) | 2.13 µM (inactive) | 0.209 µM (active) | 0.265 µM (active) | 0.255 µM (active) | 0.153 µM (active) | 1.48 µM (inactive) | 0.218 µM (active) | 0.298 µM (active) | 0.351 µM (active) | 0.485 µM (active) | 0.291 µM (active) | 0.363 µM (active) | 0.658 µM (active) | 0.711 µM (active) | 0.807 µM (active) | 0.188 µM (active) | 52.2 µM (inactive) | 2.73 µM (inactive) | 0.0601 µM (active) |
| CC(C)C1(O)C(=O)N(c2c(F)c(F)c(F)c(F)c2F)C(=S)N1CCSc1ccccc1 (stereo not given) | 19 µM (inactive) | 17.7 µM (inactive) | 18.2 µM (inactive) | 18.4 µM (inactive) | 19.2 µM (inactive) | 15.5 µM (inactive) | 15.2 µM (inactive) | 9.53 µM (inactive) | 17.1 µM (inactive) | 17.5 µM (inactive) | 16.2 µM (inactive) | 15.3 µM (inactive) | 17.8 µM (inactive) | 18.2 µM (inactive) | 15.1 µM (inactive) | 16.6 µM (inactive) | 20.1 µM (inactive) | 16.5 µM (inactive) | 16.6 µM (inactive) | 17.3 µM (inactive) |
| C/C(=N\NC(=O)c1ccncc1)c1sc(-n2nc(-c3ccccc3)cc2-c2ccccc2)nc1C | > 100 µM (inactive) | > 31.6 µM (inactive) | > 31.6 µM (inactive) | > 100 µM (inactive) | > 31.6 µM (inactive) | > 31.6 µM (inactive) | > 31.6 µM (inactive) | > 31.6 µM (inactive) | 99.5 µM (inactive) | > 31.6 µM (inactive) | 25.5 µM (inactive) | > 31.6 µM (inactive) | > 31.6 µM (inactive) | > 31.6 µM (inactive) | 17.1 µM (inactive) | > 35.7 µM (inactive) | > 31.6 µM (inactive) | > 31.6 µM (inactive) | > 31.6 µM (inactive) | > 31.6 µM (inactive) |
| CC1(O)C=CC(=O)C=C1 | 25.3 µM (inactive) | 24.7 µM (inactive) | 60.1 µM (inactive) | 13.9 µM (inactive) | 20.3 µM (inactive) | 36.6 µM (inactive) | 40.9 µM (inactive) | > 100 µM (inactive) | > 48.2 µM (inactive) | 20.1 µM (inactive) | 16.2 µM (inactive) | > 76.4 µM (inactive) | 25.7 µM (inactive) | 17.7 µM (inactive) | 19.2 µM (inactive) | 18.6 µM (inactive) | 23.5 µM (inactive) | 18.8 µM (inactive) | 59.2 µM (inactive) | 21.6 µM (inactive) |
| O=c1ccn(C2OC(COC3CCCCO3)C(OC3CCCCO3)C2OC2CCCCO2)c(=O)n1-c1ccccc1 (stereo not given) | > 100 µM (inactive) | > 100 µM (inactive) | > 100 µM (inactive) | > 100 µM (inactive) | > 100 µM (inactive) | > 100 µM (inactive) | > 100 µM (inactive) | > 100 µM (inactive) | > 100 µM (inactive) | > 100 µM (inactive) | 51.5 µM (inactive) | > 100 µM (inactive) | > 100 µM (inactive) | > 100 µM (inactive) | > 100 µM (inactive) | > 100 µM (inactive) | > 100 µM (inactive) | > 100 µM (inactive) | > 100 µM (inactive) | > 100 µM (inactive) |
| CC(C)(C)OC(=O)NC(CSSCC(NC(=O)OC(C)(C)C)C(=O)O)C(=O)O (stereo not given) | > 100 µM (inactive) | > 100 µM (inactive) | > 100 µM (inactive) | > 100 µM (inactive) | > 100 µM (inactive) | > 100 µM (inactive) | > 100 µM (inactive) | > 100 µM (inactive) | > 100 µM (inactive) | > 100 µM (inactive) | > 100 µM (inactive) | > 100 µM (inactive) | > 100 µM (inactive) | > 100 µM (inactive) | > 100 µM (inactive) | > 100 µM (inactive) | > 100 µM (inactive) | > 100 µM (inactive) | > 100 µM (inactive) | > 100 µM (inactive) |
| CCOC(=O)/C=C(\C(=O)OCC)n1ccc(=O)n(Cc2cnnn2CCCCOC(C)=O)c1=O | 5.08 µM (inactive) | 14.7 µM (inactive) | 6.21 µM (inactive) | 15.6 µM (inactive) | 8.53 µM (inactive) | 21.7 µM (inactive) | 12.3 µM (inactive) | 2.57 µM (inactive) | 15.9 µM (inactive) | 17.5 µM (inactive) | 2.19 µM (inactive) | 19.9 µM (inactive) | 1.57 µM (inactive) | 11.3 µM (inactive) | 2.49 µM (inactive) | 1.53 µM (inactive) | 2.03 µM (inactive) | 6 µM (inactive) | 2.05 µM (inactive) | 0.697 µM (active) |
| CC(=O)C1C(=O)C(=O)N(c2ccc(Cl)cc2C)C1=O (stereo not given) | > 100 µM (inactive) | > 100 µM (inactive) | > 100 µM (inactive) | > 100 µM (inactive) | > 100 µM (inactive) | > 100 µM (inactive) | > 100 µM (inactive) | > 100 µM (inactive) | > 100 µM (inactive) | > 100 µM (inactive) | > 100 µM (inactive) | > 100 µM (inactive) | > 100 µM (inactive) | > 100 µM (inactive) | > 100 µM (inactive) | > 100 µM (inactive) | > 100 µM (inactive) | > 100 µM (inactive) | > 100 µM (inactive) | > 100 µM (inactive) |
| COc1ccc(C(=O)/C=C/S/C(=N/C#N)SC)cc1 | 21 µM (inactive) | 20.5 µM (inactive) | 14.9 µM (inactive) | 25.8 µM (inactive) | > 100 µM (inactive) | 17.9 µM (inactive) | 58.9 µM (inactive) | 65.5 µM (inactive) | 25.9 µM (inactive) | 18.3 µM (inactive) | 3.95 µM (inactive) | > 100 µM (inactive) | 19.5 µM (inactive) | 20.4 µM (inactive) | 5.77 µM (inactive) | 18.2 µM (inactive) | 20 µM (inactive) | 30.2 µM (inactive) | 16.8 µM (inactive) | 18.2 µM (inactive) |
| CCCCCCCCCCCCCCCCP(=O)([O-])OCC[N+](C)(C)C | 16.9 µM (inactive) | 15.1 µM (inactive) | 14.8 µM (inactive) | 17.6 µM (inactive) | 5.75 µM (inactive) | 14.9 µM (inactive) | 19.1 µM (inactive) | 15 µM (inactive) | 2.61 µM (inactive) | 15.3 µM (inactive) | 10.4 µM (inactive) | 18.1 µM (inactive) | 30 µM (inactive) | 16.9 µM (inactive) | 17.2 µM (inactive) | 22.6 µM (inactive) | 24.5 µM (inactive) | 18.5 µM (inactive) | 14.5 µM (inactive) | 3.93 µM (inactive) |
